{"source": "patent EP1585727B1", "about": "“INDOLES USEFUL IN THE TREATMENT OF ANDROGEN-RECEPTOR RELATED DISEASES” (priority 2002, dated 2004)", "key": {"human androgen receptor [1]": {"biological_target": "T1, human androgen receptor (Homo sapiens, UniProt P10275)", "T1 construct": "expressed in transfected cells; host or cells: Chinese hamster ovary (CHO) cells, cell line CHO-AR-pMMTV-LUC 1G12-A5-CA", "T1 sequence (P10275 1-920)": "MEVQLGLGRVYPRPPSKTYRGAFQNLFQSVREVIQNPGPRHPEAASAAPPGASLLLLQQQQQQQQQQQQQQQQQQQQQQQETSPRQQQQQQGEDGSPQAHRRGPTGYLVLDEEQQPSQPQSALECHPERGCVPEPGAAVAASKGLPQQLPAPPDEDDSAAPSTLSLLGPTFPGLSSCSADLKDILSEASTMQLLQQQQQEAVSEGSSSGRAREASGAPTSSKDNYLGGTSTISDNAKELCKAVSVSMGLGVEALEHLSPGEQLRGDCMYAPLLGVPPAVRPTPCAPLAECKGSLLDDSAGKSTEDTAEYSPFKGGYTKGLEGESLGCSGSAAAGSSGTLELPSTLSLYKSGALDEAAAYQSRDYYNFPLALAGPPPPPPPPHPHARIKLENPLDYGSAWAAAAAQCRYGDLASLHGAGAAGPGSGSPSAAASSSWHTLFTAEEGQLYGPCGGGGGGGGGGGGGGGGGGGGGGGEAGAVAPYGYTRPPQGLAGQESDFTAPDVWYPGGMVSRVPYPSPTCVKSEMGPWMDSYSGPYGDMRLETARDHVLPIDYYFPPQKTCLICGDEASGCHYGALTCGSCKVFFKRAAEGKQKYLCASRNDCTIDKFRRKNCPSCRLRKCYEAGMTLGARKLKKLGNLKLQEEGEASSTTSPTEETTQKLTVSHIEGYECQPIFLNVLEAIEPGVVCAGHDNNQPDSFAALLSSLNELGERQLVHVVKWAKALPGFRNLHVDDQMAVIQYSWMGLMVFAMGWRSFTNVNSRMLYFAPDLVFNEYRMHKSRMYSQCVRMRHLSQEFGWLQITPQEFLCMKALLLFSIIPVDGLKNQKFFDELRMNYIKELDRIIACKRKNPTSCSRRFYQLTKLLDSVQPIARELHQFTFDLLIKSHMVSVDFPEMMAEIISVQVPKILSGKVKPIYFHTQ", "experiment": "cell-based", "description": "(§1) Compounds were tested for their Androgen Receptor activity in a transactivation assay and in a binding assay.\n(§2) The (anti-)androgenic activity of test compounds (EC50 and intrinsic activity) was determined in an in vitro bioassay of Chinese hamster ovary (CHO) cells stably transfected with the human androgen receptor expression plasmid and a reporter plasmid in which the MMTV-promoter is linked to the luciferase reporter gene. The cell-line CHO-AR-pMMTV-LUC 1G12-AS-CA is described in Schoonen et al. (2000), Journal of Steroid Biochemistry and Molecular Biology 74(4):213-222. The antiandrogenic activity of a test compound was determined by the inhibition of the transactivation via the androgen receptor of the enzyme luciferase in the presence of 1 nM DHT (5 α-dihydrotestosterone, 17β-hydroxy-5α-androstan-3-one). Intrinsic activity of antiandrogenic activity was determined in the presence of the reference antiandrogen 2-Hydroxy-2-methyl-N-(4-nitro-3-trifluoromethyl-phenyl)-propionamide (Hydroxyflutamide), and set at 100%. For androgenic activity, maximal intrinsic activity in the presence of 100 nM DHT was set at 100%. Table 4 Androgen receptor activity"}, "human androgen receptor [2]": {"biological_target": "T1, human androgen receptor", "experiment": "Androgen receptor transactivation assay, antiandrogenic activity: inhibition of transactivation in the presence of 1 nM DHT (CHO-AR-pMMTV-LUC cells; Table 4)", "format": "cell-based", "details": "for Emax: intrinsic activity relative to reference antiandrogen Hydroxyflutamide (set at 100%); for EC50: antiandrogenic activity, read-out: ant EC50", "description": "as §1, §2"}, "[3]": {"test_system": "cytoplasmic human androgen receptor", "experiment": "Competitive binding to cytoplasmic human androgen receptor from recombinant CHO cells (relative binding affinity)", "details": "relative to DHT; cytosol of CHO-AR-pMMTV-LUC 1G12-A5-CA cells", "text": "Determination of competitive binding to cytoplasmic human androgen receptor from recombinant CHO cells is used to estimate the relative binding affinity (RBA) of a test compound for androgen receptors present in the cytosol prepared of the recombinant CHO cell-line, CHO-AR-pMMTV-LUC 1G12-A5-CA."}, "human androgen receptor [4]": {"biological_target": "T1, human androgen receptor", "experiment": "Androgen receptor transactivation assay, androgenic activity in the presence of 0.1 µmol/l onapristone (CHO-AR-pMMTV-LUC cells; Table 5)", "format": "cell-based", "details": "for ago efficacy: maximal intrinsic activity in the presence of 100 nM DHT set at 1.00; for ago potency: potency expressed as percentage of DHT activity", "description": "The androgenic activity (EC50, potency, and efficacy) of the compounds in Table 5 was determined in an in vitro bioassay of Chinese hamster ovary (CHO) cells stably transfected with the human androgen receptor expression plasmid and a reporter plasmid in which the MMTV promotor is linked to the luciferase reporter gene. The cell line CHO-AR-pMMTV-LUC 1G12-A5-CA is described in Schoonen et al. (J. Steroid Biochem. Molec. Biol. […]; 74: 213-222). The androgen receptor activity of compounds was determined in the presence of 0.1 µmol/l onapristone. The maximal efficacy in the presence of 100 nmol/l DHT was set as 100%. The potencies are expressed as percentage of DHT activity. Table 5 Androgen receptor activity"}, "[5]": {"details": "androgenic activity, CHO-AR-pMMTV-LUC cells, read-out: ago EC50"}, "[6]": {"details": "in the presence of 1 nM DHT, read-out: ant efficacy"}}}
{"smiles": "COc1ccc2c(Sc3ccccc3C(N)=O)cn(Cc3cc(F)cc(F)c3)c2c1", "note": "[Compound 18, 2-[1-(3,5-Difluoro-benzyl)-6-methoxy-1H-indol-3-ylsulfanyl]-benzamide]", "values": [{"measurement": "EC50", "setting": "human androgen receptor [1]; [5]", "value": "> 10000", "unit": "nM"}, {"measurement": "Emax", "setting": "human androgen receptor [2]; read-out: ant efficacy, in the presence of 1 nM DHT", "value": "20 to 50", "unit": "%"}]}
{"smiles": "COc1ccc2c(Sc3ccccc3OC)cn(Cc3cc(F)cc(F)c3)c2c1", "note": "[Compound 21]", "values": [{"measurement": "EC50", "setting": "human androgen receptor [1]; [5]", "value": "5 to 100", "unit": "nM"}, {"measurement": "EC50", "setting": "human androgen receptor [2]; in the presence of 1 nM DHT", "value": "> 10000", "unit": "nM"}, {"measurement": "Emax", "setting": "human androgen receptor [2]; [6]", "value": "< 20", "unit": "%"}]}
{"smiles": "O=[N+]([O-])c1ccccc1Sc1cn(Cc2cc(F)cc(F)c2)c2cccc(F)c12", "note": "[Compound 51]", "values": [{"measurement": "EC50", "setting": "human androgen receptor [1]", "value": "5 to 100", "unit": "nM"}, {"measurement": "Emax", "setting": "human androgen receptor [2]; [6]", "value": "< 20", "unit": "%"}]}
{"smiles": "O=[N+]([O-])c1ccccc1Sc1cn(Cc2cc(F)cc(F)c2)c2ccccc12", "note": "[Compound 52]", "values": [{"measurement": "EC50", "setting": "human androgen receptor [1]", "value": "< 5", "unit": "nM"}, {"measurement": "Emax", "setting": "human androgen receptor [2]; [6]", "value": "< 20", "unit": "%"}]}
{"smiles": "O=[N+]([O-])c1ccccc1Sc1cn(Cc2cc(F)cc(F)c2)c2ccc(O)cc12", "note": "[Compound 56]", "values": [{"measurement": "Emax", "setting": "human androgen receptor [1]; maximal intrinsic activity in the presence of 100 nM DHT set at 1.00, read-out: ago efficacy", "value": "< 20", "unit": "%"}, {"measurement": "EC50", "setting": "human androgen receptor [2]; in the presence of 1 nM DHT", "value": "> 10000", "unit": "nM"}, {"measurement": "Emax", "setting": "human androgen receptor [2]; [6]", "value": "< 20", "unit": "%"}]}
{"smiles": "COc1ccc2c(Sc3ccccc3[N+](=O)[O-])cn(Cc3ccccc3)c2c1", "note": "[Compound 92]", "values": [{"measurement": "relative binding affinity (RBA)", "setting": "[3]", "value": "> 1", "unit": "%"}, {"measurement": "Emax", "setting": "human androgen receptor [2]; [6]", "value": "< 20", "unit": "%"}]}
{"smiles": "N#Cc1ccc2c(Sc3ccccc3[N+](=O)[O-])cn(Cc3cccnc3)c2c1", "note": "[Compound 121, 3-(2-Nitro-phenylsulfanyl)-1-pyridin-3-ylmethyl-1H-indole-6-carbonitrile]", "values": [{"measurement": "ago efficacy", "setting": "human androgen receptor [4]", "value": "++ (≥0.80)"}, {"measurement": "ago potency", "setting": "human androgen receptor [4]", "value": "+ (between 1% and 5%)"}]}
{"smiles": "N#Cc1ccc2c(Sc3ccccc3[N+](=O)[O-])cn(Cc3ccncc3)c2c1", "note": "[Compound 122, 3-(2-Nitro-phenylsulfanyl)-1-pyridin-4-ylmethyl-1H-indole-6-carbonitrile]", "values": [{"measurement": "ago efficacy", "setting": "human androgen receptor [4]", "value": "+ (between 0.50 and 0.80)"}, {"measurement": "ago potency", "setting": "human androgen receptor [4]", "value": "+ (between 1% and 5%)"}]}
{"smiles": "N#Cc1ccc2c(Sc3ccccc3[N+](=O)[O-])cn(Cc3cncnc3)c2c1", "note": "[Compound 123, 3-(2-Nitro-phenylsulfanyl)-1-pyrimidin-5-ylmethyl-1H-indole-6-carbonitrile]", "values": [{"measurement": "ago efficacy", "setting": "human androgen receptor [4]", "value": "++ (≥0.80)"}, {"measurement": "ago potency", "setting": "human androgen receptor [4]", "value": "++ (>5%)"}]}
{"smiles": "N#Cc1ccc2c(Sc3ccccc3[N+](=O)[O-])cn(Cc3ccncn3)c2c1", "note": "[Compound 124, 3-(2-Nitro-phenylsulfanyl)-1-pyrimidin-4-ylmethyl-1H-indole-6-carbonitrile]", "values": [{"measurement": "ago efficacy", "setting": "human androgen receptor [4]", "value": "++ (≥0.80)"}, {"measurement": "ago potency", "setting": "human androgen receptor [4]", "value": "++ (>5%)"}]}
{"smiles": "N#Cc1cccc(Cn2cc(Sc3ccccc3[N+](=O)[O-])c3ccc(C#N)cc32)c1", "note": "[Compound 125, 1-(3-Cyano-benzyl)-3-(2-nitro-phenylsulfanyl)-1H-indole-6-carbonitrile]", "values": [{"measurement": "ago efficacy", "setting": "human androgen receptor [4]", "value": "++ (≥0.80)"}, {"measurement": "ago potency", "setting": "human androgen receptor [4]", "value": "+ (between 1% and 5%)"}]}
